Assay results: PubChem BioAssay AID256 (DTP/NCI, 2004)
Values joined by “and” are separate entries in the source; they are usually repeats but may differ in a detail not shown here. Equal values may be shown once. Inconclusive results and toxic doses are left out. The calls were made as follows: active = survival T/C of 150% or more; inactive = T/C below 125% in these data.

Test system: CD2F1 mice, L1210 leukemia ip, survival T/C
Experiment: NCI In Vivo Anticancer Drug Screen. Data for tumor model L1210 Leukemia (intraperitoneal) in CD2F1 (CDF1) mice
Conditions: higher = longer survival
In short: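 Activity against a transplanted murine tumor was judged by comparing the compound group with a vehicle group. The outcome in the treated animals was divided by that in the controls.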

Measured: T/C

O=C1NC(=O)C2C3C=CC(C12)C1C2C(=O)NC(=O)C2C31 (stereo not drawn)
active: endpoint: mean survival time, dose: 50.0 mg/kg/injection, schedule: Q01DX009 (ip), vehicle: saline with Tween-80 164 % of control | endpoint: mean survival time, dose: 100.0 mg/kg/injection, schedule: Q01DX009 (ip), vehicle: saline with Tween-80 188 % of control | endpoint: median survival time, dose: 7.8 mg/kg/injection, schedule: Q03HX008 (ip), vehicle: clinical formulation 162 % of control | endpoint: median survival time, dose: 10.4 mg/kg/injection, schedule: Q03HX024 (ip), vehicle: clinical formulation 162 % of control | endpoint: median survival time, dose: 16.7 mg/kg/injection, schedule: Q03HX027 (ip), vehicle: saline 152 % of control | endpoint: median survival time, dose: 23.3 mg/kg/injection, schedule: Q01DX009 (ip), vehicle: water 150 % of control | endpoint: median survival time, dose: 27.7 mg/kg/injection, schedule: Q01DX009 (ip), vehicle: clinical formulation 154 % of control | endpoint: median survival time, dose: 27.8 mg/kg/injection, schedule: Q03HX027 (ip), vehicle: saline 183 % of control | endpoint: median survival time, dose: 30.0 mg/kg/injection, schedule: Q01DX009 (ip), vehicle: clinical formulation 166 % of control | endpoint: median survival time, dose: 30.0 mg/kg/injection, schedule: Q01DX009 (ip), vehicle: water 186 % of control | endpoint: median survival time, dose: 32.9 mg/kg/injection, schedule: Q01DX009 (ip), vehicle: water 226 % of control | endpoint: median survival time, dose: 38.9 mg/kg/injection, schedule: Q01DX009 (ip), vehicle: water 200 % of control | endpoint: median survival time, dose: 50.0 mg/kg/injection, schedule: Q01DX005 (ip), vehicle: clinical formulation 198 % of control | endpoint: median survival time, dose: 50.0 mg/kg/injection, schedule: Q01DX005 (iv), vehicle: clinical formulation 174 % of control | endpoint: median survival time, dose: 50.0 mg/kg/injection, schedule: Q01DX005 (iv), vehicle: other 185 % of control | endpoint: median survival time, dose: 50.0 mg/kg/injection, schedule: Q01DX009 (ip), vehicle: clinical formulation 176 % of control and 203 % of control | endpoint: median survival time, dose: 50.0 mg/kg/injection, schedule: Q01DX009 (ip), vehicle: saline with Tween-80 246 % of control | endpoint: median survival time, dose: 50.0 mg/kg/injection, schedule: Q01DX009 (ip), vehicle: saline 160 % of control | endpoint: median survival time, dose: 50.0 mg/kg/injection, schedule: Q01DX009 (ip), vehicle: water 256 % of control | endpoint: median survival time, dose: 55.5 mg/kg/injection, schedule: Q01DX009 (ip), vehicle: clinical formulation 284 % of control | endpoint: median survival time, dose: 62.5 mg/kg/injection, schedule: Q01DX001 (iv), vehicle: clinical formulation 151 % of control | endpoint: median survival time, dose: 64.8 mg/kg/injection, schedule: Q01DX009 (ip), vehicle: water 268 % of control | endpoint: median survival time, dose: 83.3 mg/kg/injection, schedule: Q04DX003 (ip), vehicle: clinical formulation 182 % of control | endpoint: median survival time, dose: 100.0 mg/kg/injection, schedule: Q01DX005 (iv), vehicle: other 150 % of control and 195 % of control | endpoint: median survival time, dose: 125.0 mg/kg/injection, schedule: Q01DX001 (ip), vehicle: clinical formulation 170 % of control | endpoint: median survival time, dose: 200.0 mg/kg/injection, schedule: Q01DX005 (iv), vehicle: other 158 % of control | endpoint: median survival time, dose: 444.4 mg/kg/injection, schedule: Q01DX009 (oral), vehicle: clinical formulation 158 % of control | endpoint: median survival time, dose: 888.8 mg/kg/injection, schedule: Q01DX009 (oral), vehicle: clinical formulation 184 % of control
inactive: endpoint: mean survival time, dose: 12.5 mg/kg/injection, schedule: Q01DX009 (ip), vehicle: saline with Tween-80 115 % of control | endpoint: mean survival time, dose: 12.5 mg/kg/injection, schedule: Q01DX009 (oral), vehicle: saline with Tween-80 100 % of control | endpoint: mean survival time, dose: 25.0 mg/kg/injection, schedule: Q01DX009 (oral), vehicle: saline with Tween-80 96 % of control | endpoint: mean survival time, dose: 50.0 mg/kg/injection, schedule: Q01DX009 (oral), vehicle: saline with Tween-80 101 % of control | endpoint: mean survival time, dose: 100.0 mg/kg/injection, schedule: Q01DX009 (oral), vehicle: saline with Tween-80 104 % of control | endpoint: mean survival time, dose: 200.0 mg/kg/injection, schedule: Q01DX009 (oral), vehicle: saline with Tween-80 101 % of control | endpoint: mean survival time, dose: 400.0 mg/kg/injection, schedule: Q01DX009 (oral), vehicle: saline with Tween-80 111 % of control | endpoint: median survival time, dose: 2.6 mg/kg/injection, schedule: Q03HX024 (ip), vehicle: clinical formulation 110 % of control | endpoint: median survival time, dose: 3.12 mg/kg/injection, schedule: Q01DX009 (ip), vehicle: clinical formulation 106 % of control | endpoint: median survival time, dose: 3.12 mg/kg/injection, schedule: Q01DX009 (ip), vehicle: saline with Tween-80 108 % of control | endpoint: median survival time, dose: 6.0 mg/kg/injection, schedule: Q03HX027 (ip), vehicle: saline 112 % of control | endpoint: median survival time, dose: 6.25 mg/kg/injection, schedule: Q01DX009 (ip), vehicle: clinical formulation 108 % of control | endpoint: median survival time, dose: 6.9 mg/kg/injection, schedule: Q01DX009 (ip), vehicle: clinical formulation 102 % of control | endpoint: median survival time, dose: 11.8 mg/kg/injection, schedule: Q01DX009 (ip), vehicle: water 108 % of control | endpoint: median survival time, dose: 12.5 mg/kg/injection, schedule: Q01DX005 (ip), vehicle: clinical formulation 100 % of control | endpoint: median survival time, dose: 12.5 mg/kg/injection, schedule: Q01DX005 (ip), vehicle: other 101 % of control and 106 % of control | endpoint: median survival time, dose: 12.5 mg/kg/injection, schedule: Q01DX005 (iv), vehicle: clinical formulation 108 % of control | endpoint: median survival time, dose: 12.5 mg/kg/injection, schedule: Q01DX005 (iv), vehicle: other 103 % of control and 104 % of control | endpoint: median survival time, dose: 12.5 mg/kg/injection, schedule: Q01DX009 (ip), vehicle: clinical formulation 112 % of control | endpoint: median survival time, dose: 12.5 mg/kg/injection, schedule: Q01DX009 (ip), vehicle: saline with Tween-80 116 % of control | endpoint: median survival time, dose: 12.5 mg/kg/injection, schedule: Q01DX009 (oral), vehicle: other 100 % of control | endpoint: median survival time, dose: 13.8 mg/kg/injection, schedule: Q01DX009 (ip), vehicle: clinical formulation 101 % of control | endpoint: median survival time, dose: 14.0 mg/kg/injection, schedule: Q01DX009 (ip), vehicle: water 117 % of control | endpoint: median survival time, dose: 18.0 mg/kg/injection, schedule: Q01DX009 (ip), vehicle: clinical formulation 110 % of control | endpoint: median survival time, dose: 18.0 mg/kg/injection, schedule: Q01DX009 (ip), vehicle: saline 103 % of control | endpoint: median survival time, dose: 18.0 mg/kg/injection, schedule: Q01DX009 (ip), vehicle: water 113 % of control | endpoint: median survival time, dose: 19.7 mg/kg/injection, schedule: Q01DX009 (ip), vehicle: water 107 % of control | endpoint: median survival time, dose: 20.8 mg/kg/injection, schedule: Q03HX024 (ip), vehicle: clinical formulation 114 % of control | endpoint: median survival time, dose: 20.8 mg/kg/injection, schedule: Q04DX003 (ip), vehicle: clinical formulation 121 % of control | endpoint: median survival time, dose: 25.0 mg/kg/injection, schedule: Q01DX001 (iv), vehicle: other 100 % of control | endpoint: median survival time, dose: 25.0 mg/kg/injection, schedule: Q01DX005 (ip), vehicle: clinical formulation 114 % of control | endpoint: median survival time, dose: 25.0 mg/kg/injection, schedule: Q01DX005 (ip), vehicle: other 108 % of control | endpoint: median survival time, dose: 25.0 mg/kg/injection, schedule: Q01DX005 (iv), vehicle: other 101 % of control and 109 % of control | endpoint: median survival time, dose: 25.0 mg/kg/injection, schedule: Q01DX005 (oral), vehicle: other 98 % of control | endpoint: median survival time, dose: 25.0 mg/kg/injection, schedule: Q01DX009 (ip), vehicle: clinical formulation 122 % of control | endpoint: median survival time, dose: 25.0 mg/kg/injection, schedule: Q01DX009 (oral), vehicle: other 98 % of control | endpoint: median survival time, dose: 46.3 mg/kg/injection, schedule: Q03HX027 (ip), vehicle: saline 88 % of control | endpoint: median survival time, dose: 50.0 mg/kg/injection, schedule: Q01DX001 (iv), vehicle: other 106 % of control | endpoint: median survival time, dose: 50.0 mg/kg/injection, schedule: Q01DX001 (oral), vehicle: other 100 % of control | endpoint: median survival time, dose: 50.0 mg/kg/injection, schedule: Q01DX005 (oral), vehicle: other 101 % of control | endpoint: median survival time, dose: 50.0 mg/kg/injection, schedule: Q01DX009 (oral), vehicle: other 109 % of control | endpoint: median survival time, dose: 54.8 mg/kg/injection, schedule: Q01DX009 (ip), vehicle: water 119 % of control | endpoint: median survival time, dose: 55.5 mg/kg/injection, schedule: Q01DX009 (oral), vehicle: clinical formulation 108 % of control | endpoint: median survival time, dose: 83.3 mg/kg/injection, schedule: Q01DX009 (ip), vehicle: clinical formulation 112 % of control | endpoint: median survival time, dose: 83.3 mg/kg/injection, schedule: Q01DX009 (ip), vehicle: saline 106 % of control | endpoint: median survival time, dose: 83.3 mg/kg/injection, schedule: Q01DX009 (ip), vehicle: water 97 % of control | endpoint: median survival time, dose: 100.0 mg/kg/injection, schedule: Q01DX001 (iv), vehicle: other 104 % of control | endpoint: median survival time, dose: 100.0 mg/kg/injection, schedule: Q01DX001 (oral), vehicle: other 98 % of control | endpoint: median survival time, dose: 100.0 mg/kg/injection, schedule: Q01DX005 (oral), vehicle: other 100 % of control | endpoint: median survival time, dose: 100.0 mg/kg/injection, schedule: Q01DX009 (oral), vehicle: other 114 % of control | endpoint: median survival time, dose: 111.1 mg/kg/injection, schedule: Q01DX009 (ip), vehicle: clinical formulation 93 % of control | endpoint: median survival time, dose: 111.1 mg/kg/injection, schedule: Q01DX009 (oral), vehicle: clinical formulation 121 % of control | endpoint: median survival time, dose: 200.0 mg/kg/injection, schedule: Q01DX001 (iv), vehicle: other 104 % of control | endpoint: median survival time, dose: 200.0 mg/kg/injection, schedule: Q01DX001 (oral), vehicle: other 98 % of control | endpoint: median survival time, dose: 200.0 mg/kg/injection, schedule: Q01DX005 (ip), vehicle: other 109 % of control | endpoint: median survival time, dose: 200.0 mg/kg/injection, schedule: Q01DX005 (oral), vehicle: other 110 % of control | endpoint: median survival time, dose: 400.0 mg/kg/injection, schedule: Q01DX001 (iv), vehicle: other 101 % of control | endpoint: median survival time, dose: 400.0 mg/kg/injection, schedule: Q01DX001 (oral), vehicle: other 98 % of control | endpoint: median survival time, dose: 400.0 mg/kg/injection, schedule: Q01DX005 (oral), vehicle: other 112 % of control | endpoint: median survival time, dose: 800.0 mg/kg/injection, schedule: Q01DX001 (oral), vehicle: other 102 % of control
